A short description of series [1]: Hydrolytic stability assay at pH 2. Type of series: physicochemical. The note with it: buffer pH 2, 37° C., compounds of the invention. How it is done: The hydrolytic stability assay investigates the stability of a compound in an aqueous buffer system. Standard solution stability assay is run in 0.05 M Phosphate buffer at pH 7.4 (pH of blood plasma) at 37° C. As compounds in the GI tract are exposed to a wide variety of pHs any relevant pH (as pH 2 to simulate the acidic condition of the GI tract in the following experiment) can be chosen. Compounds are incubated in relevant solution at 37° C. and analyzed by HPLC immediately after incubation and after 1, 2 and 24 hrs. Degradation rate (decay in %) is calculated by relating peak areas after 1, 2 and 24 hrs to the time zero injection.
Compound is available as 10 mM in DMSO (solution 1). 2.5 μL of solution 1 is dissolved in 1 mL acetonitrile leading to solution 2. Poorly soluble compounds may demand another dilution step of solution 2 (1:5 and 1:10 respectively) in Acetonitrile). Solution 2 is incubated at 37° C. in a tempered HPLC autosampler. 1 mL buffer pH 2 is transferred into an HPLC vial. 100 μL of solution 2 is added to the buffer pH 2 solution and mixed thoroughly. Immediately after mixing the combined solution is injected into the HPLC to give the time zero injection. Injections are repeated after 1, 2 and 24 hrs.
The degradation rate (decay in %) is calculated using HPLC software Millennium and Excel respectively.

The target in series [2] is T1, Mps-1 kinase (Homo sapiens, UniProt P33981).
T1 sequence (P33981 1-857): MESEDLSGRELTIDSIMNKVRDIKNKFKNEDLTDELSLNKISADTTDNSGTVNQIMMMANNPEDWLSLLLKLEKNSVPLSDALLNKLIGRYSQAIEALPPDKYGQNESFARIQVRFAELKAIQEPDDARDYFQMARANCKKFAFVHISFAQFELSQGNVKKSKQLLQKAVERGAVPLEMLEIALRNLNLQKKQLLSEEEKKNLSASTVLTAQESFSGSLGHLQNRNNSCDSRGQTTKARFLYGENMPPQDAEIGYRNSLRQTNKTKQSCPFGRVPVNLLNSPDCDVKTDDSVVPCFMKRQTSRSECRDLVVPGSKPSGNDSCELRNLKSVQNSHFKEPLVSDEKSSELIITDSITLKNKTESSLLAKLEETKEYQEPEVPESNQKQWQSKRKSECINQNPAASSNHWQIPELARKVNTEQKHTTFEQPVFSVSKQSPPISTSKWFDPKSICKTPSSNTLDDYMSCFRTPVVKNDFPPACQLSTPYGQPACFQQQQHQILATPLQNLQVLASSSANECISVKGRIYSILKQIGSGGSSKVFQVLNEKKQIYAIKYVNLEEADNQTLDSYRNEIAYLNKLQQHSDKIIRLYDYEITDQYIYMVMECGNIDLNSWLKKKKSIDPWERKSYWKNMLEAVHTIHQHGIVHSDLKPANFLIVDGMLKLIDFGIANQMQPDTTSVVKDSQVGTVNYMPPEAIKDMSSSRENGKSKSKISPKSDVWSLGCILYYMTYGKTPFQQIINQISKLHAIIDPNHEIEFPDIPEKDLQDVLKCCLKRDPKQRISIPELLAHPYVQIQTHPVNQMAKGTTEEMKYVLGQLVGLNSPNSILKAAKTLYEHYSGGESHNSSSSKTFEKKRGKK
Description: Mps-1 kinase assay with 10 μM ATP (TR-FRET). A general note: Time-resolved FRET reads energy transfer from a long-lived donor to a nearby acceptor.

Series [3] concerns the target T1, Mps-1 kinase. The series can be described thus: Mps-1 kinase assay with 2 mM ATP (TR-FRET).

The record followed here is patent US20140120087A1, “TRIAZOLOPYRIDINES” (BAYER INTELLECTUAL PROPERTY GMBH, priority 2011, published 2014).

As a reminder, the IC50 is the concentration needed to halve the response being measured. Read a high IC50 as weaker potency.

For `COc1cc(C(=O)NCC(F)(F)F)ccc1Nc1nc2ccc(-c3ccc(C(=O)NCc4ccc(F)cc4)cc3)cn2n1` [Example 02.17, 4-[(6-{4-[(4-fluorobenzyl)carbamoyl]phenyl}[1,2,4]triazolo[1,5-α]pyridin-2-yl)amino]-3-methoxy-N-(2,2,2-trifluoroethyl)benzamide], the “Hydrolysis at pH 2; Decay in % after 24 h” value (“Hydrolysis … in % after 24 h” below) in series [1] was below 10%. Moreover, the figures for the IC50 against Mps-1 kinase [2] and against Mps-1 kinase [3] were at most 1 nM and 4.6 nM, respectively.
Taken in the same sequence, the figures for `COc1cc(C(=O)NCCO)ccc1Nc1nc2ccc(-c3ccc(NC(=O)Cc4ccc(F)cc4)cc3)cn2n1` [Example 01.6, 4-{[6-(4-{[(4-fluorophenyl)acetyl]amino}phenyl)[1,2,4]triazolo[1,5-α]-pyridin-2-yl]amino}-N-(2-hydroxyethyl)-3-methoxybenzamide] were below 10%, at most 1 nM and at most 1 nM.
In the same order, the values of `CCN(CC)C(=O)c1ccc(Nc2nc3ccc(-c4ccc(NC(=O)Cc5ccc(F)cc5)cc4)cn3n2)c(OCC(F)(F)F)c1` [Example 01.22, N,N-diethyl-4-{[6-(4-{[(4-fluorophenyl)acetyl]amino}phenyl)[1,2,4]triazolo-[1,5-α]pyridin-2-yl]amino}-3-(2,2,2-trifluoroethoxy)benzamide] are below 10%, at most 1 nM and at most 1 nM.
For the compound `CC(C)(CO)NC(=O)c1ccc(Nc2nc3ccc(-c4ccc(C(=O)NCc5ccc(F)cc5)cc4)cn3n2)c(OCC(F)(F)F)c1` [Example 02.18, 4-[(6-{4-[(4-fluorobenzyl)carbamoyl]phenyl}[1,2,4]triazolo[1,5-α]pyridin-2-yl)amino]-N-(1-hydroxy-2-methylpropan-2-yl)-3-(2,2,2-trifluoroethoxy)-benzamide], in series [1], the “Hydrolysis … in % after 24 h” value is below 10%. Further, the IC50 against Mps-1 kinase [2] and at Mps-1 kinase [3] was at most 1 nM throughout.
Consider `CCOc1cc(C(=O)NCCO)ccc1Nc1nc2ccc(-c3ccc(NC(=O)Cc4ccc(F)cc4)cc3)cn2n1` [Example 01.8, 3-ethoxy-4-{[6-(4-{[(4-fluorophenyl)acetyl]amino}phenyl)[1,2,4]triazolo-[1,5-α]pyridin-2-yl]amino}-N-(2-hydroxyethyl)benzamide], for which, in series [1], the “Hydrolysis … in % after 24 h” value is on record as below 10%. Further, the IC50 at Mps-1 kinase [2] and against Mps-1 kinase [3] was at most 1 nM each time.
With `Cc1cc(N(C)C)ccc1Nc1nc2ccc(-c3ccc(C(=O)NCc4ccc(F)cc4)cc3)cn2n1` [Example 02.24, 4-(2-{[4-(dimethylamino)-2-methylphenyl]amino}[1,2,4]triazolo[1,5-α]-pyridin-6-yl)-N-(4-fluorobenzyl)benzamide], in series [1], the “Hydrolysis … in % after 24 h” value is on record as below 10%. Besides, the IC50 against Mps-1 kinase [2] is at most 1 nM; on Mps-1 kinase [3], 5.9 nM.
Taken in the same sequence, the figures for `CCOc1cc(C(=O)NCCO)ccc1Nc1nc2ccc(-c3ccc(C(=O)NCc4ccc(F)cc4)cc3)cn2n1` [Example 02.2, 3-ethoxy-4-[(6-{4-[(4-fluorobenzyl)carbamoyl]phenyl}[1,2,4]triazolo[1,5-α]pyridin-2-yl)amino]-N-(2-hydroxyethyl)benzamide] were below 10%, at most 1 nM and at most 1 nM.
Take `COc1cc(S(C)(=O)=O)ccc1Nc1nc2ccc(-c3ccc(C(=O)NCc4ccc(F)cc4)cc3)cn2n1` [Example 02.6, N-(4-fluorobenzyl)-4-(2-{[2-methoxy-4-(methylsulfonyl)phenyl]amino}-[1,2,4]triazolo[1,5-α]pyridin-6-yl)benzamide]: in series [1], the “Hydrolysis … in % after 24 h” value is below 10%. In addition, the IC50 against Mps-1 kinase [2] was at most 1 nM; at Mps-1 kinase [3], 4.3 nM.
Taken in the same sequence, the figures for `CC(C)(C)NC(=O)c1ccc(Nc2nc3ccc(-c4ccc(NC(=O)Cc5ccc(F)cc5)cc4)cn3n2)c(OCC(F)(F)F)c1` [Example 01.21, N-tert-butyl-4-{[6-(4-{[(4-fluorophenyl)acetyl]amino}phenyl)[1,2,4]-triazolo[1,5-α]pyridin-2-yl]amino}-3-(2,2,2-trifluoroethoxy)benzamide] were below 10%, at most 1 nM and at most 1 nM.
Turning to `O=C(NCCO)c1ccc(Nc2nc3ccc(-c4ccc(C(=O)NCc5ccc(F)cc5)cc4)cn3n2)c(OCC(F)(F)F)c1` [Example 02.4, 4-[(6-{4-[(4-fluorobenzyl)carbamoyl]phenyl}[1,2,4]triazolo[1,5-α]pyridin-2-yl)amino]-N-(2-hydroxyethyl)-3-(2,2,2-trifluoroethoxy)benzamide], the “Hydrolysis … in % after 24 h” value in series [1] was below 10%. The IC50 against Mps-1 kinase [2] and against Mps-1 kinase [3] was at most 1 nM each time.
For `CCOCCNC(=O)c1ccc(Nc2nc3ccc(-c4ccc(C(=O)NCc5ccc(F)cc5)cc4)cn3n2)c(OC)c1` [Example 02.10, N-(2-ethoxyethyl)-4-[(6-{4-[(4-fluorobenzyl)carbamoyl]phenyl}[1,2,4]-triazolo[1,5-α]pyridin-2-yl)amino]-3-methoxybenzamide], the “Hydrolysis … in % after 24 h” value in series [1] was below 10%. Also, the IC50 was at most 1 nM against Mps-1 kinase [2] and 2.3 nM on Mps-1 kinase [3].
For `CCOc1cc(C(=O)N(C)CCO)ccc1Nc1nc2ccc(-c3ccc(C(=O)NCc4ccc(F)cc4)cc3)cn2n1` [Example 02.12, 3-ethoxy-4-[(6-{4-[(4-fluorobenzyl)carbamoyl]phenyl}[1,2,4]triazolo[1,5-α]pyridin-2-yl)amino]-N-(2-hydroxyethyl)-N-methylbenzamide], in series [1], the “Hydrolysis … in % after 24 h” value is below 10%. The IC50 on Mps-1 kinase [2] and against Mps-1 kinase [3] was at most 1 nM each time.
`COc1cc(C(=O)NC(C)(C)CO)ccc1Nc1nc2ccc(-c3ccc(C(=O)NCc4ccc(F)cc4)cc3)cn2n1` [Example 02.8, 4-[(6-{4-[(4-fluorobenzyl)carbamoyl]phenyl}[1,2,4]triazolo[1,5-α]pyridin-2-yl)amino]-N-(1-hydroxy-2-methylpropan-2-yl)-3-methoxybenzamide]: in series [1], the “Hydrolysis … in % after 24 h” value was below 10%. In addition, the results for the IC50 on Mps-1 kinase [2] and against Mps-1 kinase [3] were at most 1 nM and 1.5 nM, respectively.
Taken in the same sequence, the figures for `CCOc1cc(C(=O)NC(C)(C)CO)ccc1Nc1nc2ccc(-c3ccc(NC(=O)Cc4ccc(F)cc4)cc3)cn2n1` [Example 01.9, 3-ethoxy-4-{[6-(4-{[(4-fluorophenyl)acetyl]amino}phenyl)[1,2,4]triazolo-[1,5-α]pyridin-2-yl]amino}-N-(1-hydroxy-2-methylpropan-2-yl)benzamide] were below 10%, at most 1 nM and at most 1 nM.
In the same order, the values of `CNCCN(C)C(=O)c1ccc(Nc2nc3ccc(-c4ccc(C(=O)NCc5ccc(F)cc5)cc4)cn3n2)c(OC)c1` [Example 02.11, 4-[(6-{4-[(4-fluorobenzyl)carbamoyl]phenyl}[1,2,4]triazolo[1,5-α]pyridin-2-yl)amino]-3-methoxy-N-methyl-N-[2-(methylamino)ethyl]benzamide] are below 10%, at most 1 nM and at most 1 nM.
As for `CCOCCNC(=O)c1ccc(Nc2nc3ccc(-c4ccc(NC(=O)Cc5ccc(F)cc5)cc4)cn3n2)c(OC)c1` [Example 01.7, N-(2-ethoxyethyl)-4-{[6-(4-{[(4-fluorophenyl)acetyl]amino}phenyl)[1,2,4]-triazolo[1,5-α]pyridin-2-yl]amino}-3-methoxybenzamide], the “Hydrolysis … in % after 24 h” value in series [1] is below 10%. Besides, the IC50 against Mps-1 kinase [2] and at Mps-1 kinase [3] was at most 1 nM throughout.
